Reference: article PMC9495235, “New MraYAA Inhibitors with an Aminoribosyl Uridine Structure and an Oxadiazole” (Antibiotics, 2022)
“Also recorded” adds a separate entry of the source.

How the values were obtained:
[1] = molecular target: T1, MraY transferase purified from Aquifex aeolicus (MraYAA) (Aquifex aeolicus, UniProt O66465); experiment: Inhibition of MraYAA transferase activity; assay type: biochemical; settings: for IC50: read-out: IC50 against MraYAA
T1 construct: His; made in house
Method: The inhibitory activity of the synthesized compounds 12a–12j was evaluated on MraY transferase purified from Aquifex aeolicus (MraYAA) prepared as previously described by Chung et al.. Their activity (Table 4) was compared to the inhibitory activity of the N-triazole-containing inhibitor 13 (Figure 3) that we previously synthesized (Table 4). Commercially available tunicamycin from Streptomyces sp. was used as a positive control in the test.
The inhibitory activity of the synthesized compounds 1–5 was determined as described in reference except that compounds were tested at a final concentration of 10% DMSO. The compounds were evaluated on His-tagged MraY transferase purified from Aquifex aeolicus (MraYAA) prepared as previously described by Chung et al.. The assays were performed as previously described by Stachyra et al..

[2] = tested on: Citrobacter freundii ATCC 8090; experiment: Antibacterial activity (CMI); assay type: cell-based; settings: Gram -
Method: (§1) The antibacterial activity of MraY inhibitors 12a–12h was also evaluated against several bacterial strains. Gram-negative (E. coli ATCC 8730, C. freundii ATCC8090 and P. aeruginosa ATCC 27853) and Gram-positive pathogenic bacterial strains (S. aureus ATCC 25923 and E. faecium ATCC 19434), including a methicillin-resistant strain (S. aureus MRSA ATCC 43300), were selected as a representative of pathogen bacterial diversity. Piperacillin and vancomycin were used as positive control in the tests.
(§2) Antibacterial activity was determined as previously described, but molecules were solubilized in 100% DMSO (cell culture grade) at 1 mg/mL concentration and 10-fold diluted in MHB just before utilization. The MHB-diluted solutions were then serially diluted in 5% DMSO-MHB, at final concentrations ranging from […] for compounds and 6.25 to 5% for DMSO.
(§3) Table S1. Antibacterial activity of compounds 12a-12i, and reference compounds.
(§4) final concentration tested

[3] = tested on: Staphylococcus aureus ATCC 25923; experiment: Antibacterial activity (CMI); assay type: cell-based; settings: Gram +
Method: as §1, §2, §3, §4

[4] = tested on: Escherichia coli ATCC 8730; experiment: Antibacterial activity (CMI); assay type: cell-based; settings: Gram -
Method: as §1, §2, §3, §4

[5] = tested on: Staphylococcus aureus MRSA ATCC 43300; experiment: Antibacterial activity (CMI); assay type: cell-based; settings: Gram +
Method: as §1, §2, §3, §4

[6] = tested on: Enterococcus faecium ATCC 19434; experiment: Antibacterial activity (CMI); assay type: cell-based; settings: Gram +
Method: as §1, §2, §3, §4

[7] = tested on: Pseudomonas aeruginosa ATCC 27853; experiment: Antibacterial activity (CMI); assay type: cell-based; settings: Gram -
Method: as §1, §2, §3, §4

[8] = Solubility in 5%DMSO-water (culture media); assay type: physicochemical; settings: at the highest final concentration tested
Method: as §2, §3, §4

[9] = final concentration of 10% DMSO, triplicate, repeated at least twice (tunicamycin tested twice)

T1 sequence (O66465 whole entry): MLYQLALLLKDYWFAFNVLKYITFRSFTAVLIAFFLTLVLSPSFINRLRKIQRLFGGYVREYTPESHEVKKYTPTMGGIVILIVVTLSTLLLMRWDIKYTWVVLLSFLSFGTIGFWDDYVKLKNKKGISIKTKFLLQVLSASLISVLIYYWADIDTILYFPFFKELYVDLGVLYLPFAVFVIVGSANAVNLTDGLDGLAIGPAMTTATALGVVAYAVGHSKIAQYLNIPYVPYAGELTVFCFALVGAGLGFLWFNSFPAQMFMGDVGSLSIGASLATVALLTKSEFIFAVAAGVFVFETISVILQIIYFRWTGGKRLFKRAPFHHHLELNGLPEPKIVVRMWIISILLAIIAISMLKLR

Row | Molecule | IC50 [1, 9] [µM] | CMI [2] [µg/mL] | CMI [3] [µg/mL] | CMI [4] [µg/mL] | CMI [5] [µg/mL] | CMI [6] [µg/mL] | CMI [7] [µg/mL] | solubility in 5%DMSO-water (culture media) [8] | IC50 against MraYAA [1, 9] | activity relative to the parent ester ([1]; relative to parent ethyl ester (12h), MraYAA)
1 | CCCCCCCCCC(C(=O)OCC)c1nc(C[C@H](O[C@@H]2O[C@H](CN)[C@@H](O)[C@H]2O)[C@H]2O[C@@H](n3ccc(=O)[nH]c3=O)[C@H](O)[C@@H]2O)no1 (mixture of isomers) [Compound 12h] | 27.5 ± 0.7 | > 50 | > 50 | > 50 | > 50 | > 50 | > 50 |  |  | 
2 | CCCCCCCCCCc1nc(C[C@H](O[C@@H]2O[C@H](CN)[C@@H](O)[C@H]2O)[C@H]2O[C@@H](n3ccc(=O)[nH]c3=O)[C@H](O)[C@@H]2O)no1.O=C(O)C(F)(F)F [Compound 12a] | 0.8 ± 0.1 | > 50 | > 50 | > 50 | > 50 | > 50 | > 50 |  |  | 
3 | CCCCCCCCCCCCCCCc1nc(C[C@H](O[C@@H]2O[C@H](CN)[C@@H](O)[C@H]2O)[C@H]2O[C@@H](n3ccc(=O)[nH]c3=O)[C@H](O)[C@@H]2O)no1.O=C(O)C(F)(F)F [Compound 12b] | 9.3 ± 0.2 | > 50 | > 50 | > 50 | > 50 | > 50 | > 50 |  |  | 
4 | CCCCCCCCCCCCCCCCCCc1nc(C[C@H](O[C@@H]2O[C@H](CN)[C@@H](O)[C@H]2O)[C@H]2O[C@@H](n3ccc(=O)[nH]c3=O)[C@H](O)[C@@H]2O)no1.O=C(O)C(F)(F)F [Compound 12c] | 15.8 ± 1 | > 50 | 50 | > 50 | 50 | 50 | > 50 | insoluble |  | 
5 | CCCCCCCC/C=C\CCCCCCCc1nc(C[C@H](O[C@@H]2O[C@H](CN)[C@@H](O)[C@H]2O)[C@H]2O[C@@H](n3ccc(=O)[nH]c3=O)[C@H](O)[C@@H]2O)no1.O=C(O)C(F)(F)F [Compound 12d] | 18.9 ± 0.9 | > 50 | > 50 | > 50 | > 50 | > 50 | > 50 | insoluble |  | 
6 | NC[C@H]1O[C@@H](O[C@@H](Cc2noc(-c3ccc(Oc4ccccc4)cc3)n2)[C@H]2O[C@@H](n3ccc(=O)[nH]c3=O)[C@H](O)[C@@H]2O)[C@H](O)[C@@H]1O.O=C(O)C(F)(F)F [Compound 12e] | 3.2 ± 0.2 | > 50 | > 50 | > 50 | > 50 | > 50 | > 50 |  |  | 
7 | CCCCCCCC/C=C/CCCCCCCc1nc(C[C@H](O[C@@H]2O[C@H](CN)[C@@H](O)[C@H]2O)[C@H]2O[C@@H](n3ccc(=O)[nH]c3=O)[C@H](O)[C@@H]2O)no1.O=C(O)C(F)(F)F [Compound 12f] | 17.3 ± 0.3 | > 50 | 50 | > 50 | 50 | 50 | > 50 | insoluble |  | 
8 | NC[C@H]1O[C@@H](O[C@@H](Cc2noc(CCCCCCCCCc3ccccc3)n2)[C@H]2O[C@@H](n3ccc(=O)[nH]c3=O)[C@H](O)[C@@H]2O)[C@H](O)[C@@H]1O.O=C(O)C(F)(F)F [Compound 12g] | 5.8 ± 0.1 | > 50 | > 50 | > 50 | > 50 | > 50 | > 50 |  |  | 
9 | CCCCCCCCCCC(CCCCCCCCCC)c1nc(C[C@H](O[C@@H]2O[C@H](CN)[C@@H](O)[C@H]2O)[C@H]2O[C@@H](n3ccc(=O)[nH]c3=O)[C@H](O)[C@@H]2O)no1.O=C(O)C(F)(F)F [Compound 12i] |  | > 50 | > 50 | > 50 | > 50 | > 50 | > 50 | insoluble | no activity; also recorded: N.I. ^e | 
10 | CCCCCCCCCC(C(=O)O)c1nc(C[C@H](O[C@@H]2O[C@H](CN)[C@@H](O)[C@H]2O)[C@H]2O[C@@H](n3ccc(=O)[nH]c3=O)[C@H](O)[C@@H]2O)no1 (some centres unmarked) [Compound 12j] | 2.9 ± 0.6 |  |  |  |  |  |  |  |  | almost tenfold more active
11 | CCCCCCCCCCc1cn(C[C@H](O[C@@H]2O[C@H](CN)[C@@H](O)[C@H]2O)[C@H]2O[C@@H](n3ccc(=O)[nH]c3=O)[C@H](O)[C@@H]2O)nn1 [Compound 13, reference compound] | 1.1 |  |  |  |  |  |  |  |  | 
12 | CCN1CCN(C(=O)N[C@@H](C(=O)N[C@@H]2C(=O)N3[C@@H]2SC(C)(C)[C@@H]3C(=O)O)c2ccccc2)C(=O)C1=O [Piperacillin, reference compound] |  | 4 | 4 | 4 | > 128 | 4 | 8 |  |  | 
13 | CN[C@H](CC(C)C)C(=O)N[C@H]1C(=O)N[C@@H](CC(N)=O)C(=O)N[C@H]2C(=O)N[C@H]3C(=O)N[C@H](C(=O)N[C@H](C(=O)O)c4cc(O)cc(O)c4-c4cc3ccc4O)[C@H](O)c3ccc(c(Cl)c3)Oc3cc2cc(c3O[C@@H]2O[C@H](CO)[C@@H](O)[C@H](O)[C@H]2O[C@H]2C[C@](C)(N)[C@H](O)[C@H](C)O2)Oc2ccc(cc2Cl)[C@H]1O [Vancomycin, reference compound] |  |  | 1 |  | 1 | 0.5 |  |  |  | 
14 | Tunicamycin [reference compound] | 0.026 |  |  |  |  |  |  |  |  | 
